Like-named read-outs stand apart in the source and are kept apart here.
Key:
[1] = sheep; cited from earlier work
[2] = reported; cited from earlier work
[3] = rats; cited from earlier work
[4] = pigs; cited from earlier work
[5] = cited from earlier work
[6] = Glucagon infusions with somatostatin; metabolic clearance of glucagon; assay type: in vivo, human
Excerpt: FIGS. 3A and 3B provide graphs of plasma glucagon concentrations during different glucagon infusion rates in human subjects. FIG. 3A illustrates data from studies that report lower glucagon concentrations during glucagon infusions (Chhibber, et al. Metabolism 49(1):39-46 (2000) and Matsuda, et al. Metabolism 51(9):1111-1119 (2002)) and FIG. 3B illustrates data from studies that report higher glucagon concentrations during glucagon infusions (Nielsen, et al., Diabetes 46(12):2007-2016 (1997) and Andrews, et al., J. Clin. Endocrinol. Metab. 88(1):285-291 (2003)). The equation for the regression line in FIG. 3A is y=0.41x+60.15 with r^2=0.96 and the regression line in FIG. 3B is y=x+69.5 with r=0.97.
Different research groups report considerably different glucagon concentrations in response to plasma glucagon infusions. In FIG. 3A, the regression line yields m=0.00041 min/ml, whereas for the regression line for 3B yields m=0.001 min/ml. These differences lead to considerable differences in predicted portal glucagon concentrations in both fasted and fed conditions, as described below. The MCR for glucagon has been reported to be between 7-14 ml/kg/min; taking the reciprocal of the MCR for a 70 kg individual gives m=0.001-0.002 min/ml. As a result of the variability in the reported measurements for this parameter, two different possibilities are considered in the analyses: one where m=0.00041 and another where m=0.001 min/ml.

[7] = dogs; cited from earlier work
[8] = healthy patients; cited from earlier work
[9] = cited from earlier work; remark: listed apart in the source

Row | Substance | hepatic glucagon extraction, f [1] | MCR for glucagon [2] | hepatic glucagon extraction, f [3] | hepatic glucagon extraction, f [4] | hepatic glucagon extraction in humans ([5]; Felig et al.) | portal glucagon concentration relative to systemic plasma ([5]; reported in the literature) | m as reciprocal of reported MCR ([6]; for a 70 kg individual) | m (slope of plasma glucagon concentration versus infusion rate) ([6]; studies with higher glucagon concentrations (FIG. 3B)) | m (slope of plasma glucagon concentration versus infusion rate) ([6]; studies with lower glucagon concentrations (FIG. 3A), about twice the somatostatin rate) | hepatic glucagon extraction, f [7] | m as reciprocal of reported MCR (for a 70 kg patient) | m (slope of steady-state systemic plasma concentration versus exogenous infusion rate; reciprocal of MCR) (insulin infusions with somatostatin, healthy individuals, studies of FIG. 2, 70 kg individual) | metabolic clearance rate (MCR) of insulin [8] | fractional extraction of insulin by the liver, f ([9]; most estimates) | fractional extraction of insulin by the liver, f ([9]; portal catheterization study and mathematical models based on insulin and c-peptide concentrations) | fractional extraction of insulin by the liver, f ([9]; splanchnic balance studies)
1 | glucagon | ≈ 0.07 | 7 to 14 mL/kg/min | ≈ 0.5 | ≈ 0.1 | little or no hepatic glucagon extraction | 1.3-3.0 times higher | 0.001 to 0.002 min/mL | 0.001 min/ml and ≈ 0.001 min/ml | 0.00041 min/ml and ≈ 0.0004 min/ml | ≈ 0.2 | – | – | – | – | – | –
2 | insulin | – | – | – | – | – | – | – | – | – | – | 0.0005 to 0.001 min/mL | 0.0007 min/ml and approximately 0.0007 min/ml | 13 to 27 mL/kg/min | 0.5-0.7 | ≈ 0.5 | 0.7
